Assay results published in patent US7632816B2, “Treatment of Alzheimer amyloid deposition” (New York University, priority 2003, dated 2009).
“Also recorded” adds a separate entry of the source. Square brackets hold non-standard residues; d marks the D form. Peptide text beside a SMILES is read from it.

How the values were obtained:
[1] = parameters: species or system mice; settings: mouse, in vivo
Description: Blood samples were collected at given time points. Serum was separated from plasma by centrifugation at 10,000×g for 10 minutes. The trichloroacetic (TCA) acid precipitation method was used to assess the amount of radiolabeled peptide present in the serum (Yi et al., “Amyloid β40/42 Clearance Across the Blood-brain Barrier Following Intra-ventricular Injections in Wild-type, apoE Knock-out and Human apoE3 or E4 Expressing Transgenic Mice,” J. Alz. Dis. 3:23-30 (2001); Mackic et al., “Transport Across the Blood-brain Barrier and Differential Cerebrovascular Sequestration of Circulating Alzheimer's Amyloid-β Peptide in Aged Rhesus Versus Aged Squirrel Monkeys,” Vascul. Pharmacol. 38:303-313 (2002); which are hereby incorporated by reference in their entirety). A 30% stock solution of bovine albumin (Sigma, St. Louis, Mo.) in PBS was added to serum samples to obtain a final albumin solution of 5%, which was thoroughly mixed. Serum samples were then precipitated with TCA (final concentration of TCA was 15%) and centrifugated at 25,000×g in a Beckmann TL-100 Ultracentrifuge. Radioactivity was assessed in the pellet fraction using a Beckman 4000 gamma counter. Serum level of ^125I-Aβ12-28P following intranasal peptide administration was assessed in another six wild type C57BL6J mice. Under ketamine/xylazine anesthesia 80 μg of radiolabeled peptide (in 100 μl of PBS) was administered into the nasal cavity. Ten 10 μl drops were instilled into both nostrils alternatively over five minutes. Serum samples were collected and radioactivity in TCA precipitated pellets was measured as described above. The obtained data was transformed into percentage values compared to serum radioactivity following intravenous injections at t=0 as 100%. The mean±standard deviation from all tested animals was plotted in FIG. 4 and analyzed by a one phase exponential decay nonlinear regression fit algorithm using GraphPad Prism v4.0.
At t=0, the serum level was equal to about 40% of the level achieved after administration of the same amount of peptide intravenously.

[2] = type: physicochemical
From the text: Circular dichroism (“CD”) was used to study the secondary structure of peptides in solution as described previously (Golabek et al., “The Interaction Between Apolipoprotein E and Alzheimer's Amyloid β-peptide is Dependent on β-peptide Conformation,” J. Biol. Chem. 271:10602-10606 (1996); Soto et al., “Alzheimer's Soluble β-amyloid is Conformationally Modified by Apolipoproteins in vitro,” Neuroreport 7:721-725 (1996); which are hereby incorporated by reference in their entirety). Aliquots of HFIP treated peptides were diluted in 5 mmol/L Tris buffer (pH 7.0) to obtain a peptide concentration of 100 μmol/L, and were incubated at 37° C. CD was measured at indicated intervals with t=0 being immediately after the peptide was reconstituted. Measurements were on a Jasco J-720 spectropolarimeter (Easton, Md.), equipped with a model CTC-344 circular temperature control system (Neslab Inc., Newington, N.H.), at final protein concentration of 0.15 mg/ml in a cell with 0.1 cm path length. The spectra were recorded at 1 nm intervals over the wavelength range of 190-260 nm at 15° C. Results were expressed as molar ellipticity in units of deg-cm^2-dmol^−1, and the data were analyzed by the Lincomb, convex constraints and neural network algorithms to obtain percentages of different types of secondary structures using Softsec software (Softwood Inc., PA.) (Perczel et al., “Analysis of Circular Dichroism Spectrum of Proteins Using the Convex Constraint Algorithm,” Anal. Biochem. 203:83-93 (1992); Manavalan et al., “Variable Selection Method Improves the Prediction of Protein Secondary Structure from Circular Dichroism,” Anal. Biochem. 167:76-85 (1987); Toumadje et al., “Extending CD Spectra of Proteins to 168nm Improves the Analysis for Secondary Structures,” Anal. Biochem. 200:321-331 (1992); Sreerma et al., “A Self-consistent Method for the Analysis of Protein Secondary Structure from Circular Dichroism,” Anal. Biochem. 209:32-44 (1993); which are hereby incorporated by reference in their entirety). […]

[3] = Thioflavin-T assay of the peptides' own amyloid fibril formation; type: physicochemical; settings: 100 μmol/L peptide, 37° C., up to 10 days
Description: All peptides were HFIP treated and reconstituted in 100 mM Tris buffer (pH 7.4) to obtain a 100 μmol/L concentration. […] Peptides were incubated over a period of 10 days at 37° C. Samples containing 15 μg of incubated peptides were taken at indicated intervals and fluorescence was measured as previously described in a Perkin-Elmer LS-50B fluorescence spectrophotometer (Perkin Elmer Instruments, Shelton, Conn.) (Wisniewski et al., “Acceleration of Alzheimer's Fibril Formation by Apolipoprotein E in vitro,” Am. J. Pathol. 145:1030-1035 (1994); Golabek et al., “The Interaction Between Apolipoprotein E and Alzheimer's Amyloid β-peptide is Dependent on β-peptide Conformation,” J. Biol. Chem. 271:10602-10606 (1996); which are hereby incorporated by reference in their entirety). The mean±standard deviation (“SD”) for three separate experiments was plotted in FIG. 1. Differences in amount of fibrils formed by the different peptides were evaluated by means of a repeated measures ANOVA, followed by a Tukey HSD post-hoc test using Statistica (version 6.1) (StatSoft Inc., Tulsa, Okla.).

[4] = CD immediately after reconstitution, 5 mmol/L Tris pH 7.0

CC(=O)N[C@@H](C(=O)N[C@H](Cc1c[nH]cn1)C(=O)N[C@H](Cc1c[nH]cn1)C(=O)N[C@H](CCC(N)=O)C(=O)N[C@H](CCCCN)C(=O)N[C@H](CC(C)C)C(=O)N1CCC[C@@H]1C(=O)N[C@H](Cc1ccccc1)C(=O)N[C@H](Cc1ccccc1)C(=O)N[C@H](C)C(=O)N[C@H](CCC(=O)O)C(=O)N[C@H](CC(=O)O)C(=O)N[C@@H](C(=O)NCC(=O)N[C@H](CO)C(=O)N[C@H](CC(N)=O)C(=O)N[C@H](CCCCN)C(N)=O)C(C)C)C(C)C [Aβ12-28P] (Ac-[dV][dH][dH][dQ][dK][dL][dP][dF][dF][dA][dE][dD][dV]G[dS][dN][dK]-NH2)
areas under the curve, intravenous versus intranasal [1]: no significant differences | half-life after a single intravenous injection [1]: 1.03 h | half-life ([1]; iv, half-life after a single intravenous injection): 1.04 ± 0.3 h | β-sheet content ([2]; CD at time=0): 2% | random coil, share of the total protein structure [2, 4]: 59% | ∝-helix, share of the total protein structure [2, 4]: 39% | fibril formation (Thioflavin-T fluorescence) [3]: did not form any fibrils; also recorded: non-fibrillogenic; also recorded: No fibrils were formed
